# Experimental data from PubChem BioAssay AID732 (Emory University Molecular Libraries Screening Center, 2007).
# Active and inactive are the calls of the source. The rule behind the calls is not given here.
# Tested on: in vivo angiogenesis, blood vessel count
# Test: reduction of blood vessel formation in vivo – HTS, in vivo study (AID 732);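 note: zebrafish embryos dosed at one day post fertilization; 0% = reference inhibitor and 100% = plate mean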
# Conditions: active compounds read low;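 tested at 30 µM in the well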
row,Compound,vessel count % control
1,CNCCCN1c2ccccc2CCc2ccccc21,82.9% (inactive)
2,S=C=Nc1cccc(C2(N3CCCCC3)CCCCC2)c1,91% (inactive)
3,O=C(O)[C@@H]1CCN1,84.3% (inactive)
4,Nc1ccc(N2C(=O)c3ccccc3C2=O)c(Cl)c1,78.4% (inactive)
5,Cc1ccc(OCC(O)C(C)NC(C)C)c2c1CCC2 (stereo not drawn),103% (inactive)
6,NCC1(CC(=O)O)CCCCC1,98.7% (inactive)
7,Cc1nc(N=Nc2ccc(S(=O)(=O)O)cc2S(=O)(=O)O)c(COP(=O)(O)O)c(C=O)c1O,110% (inactive)
8,CN1CCN(CC(=O)N2c3ccccc3C(=O)Nc3cccnc32)CC1,95.1% (inactive)
9,CC1(C)CCC=[N+]1[O-],85.7% (inactive)
10,CCn1cc(C(=O)O)c(=O)c2ccc(Cc3ccccc3)nc21,108% (inactive)
11,N[C@H](C(=O)O)c1cc(O)cc(O)c1,108% (inactive)
12,C1CCc2nnnn2CC1,79% (inactive)
13,CC(C)NC[C@@H](O)c1ccc(O)c(O)c1,108% (inactive)
14,CC(Cc1ccc(O)cc1)NCC(O)c1cc(O)cc(O)c1 (stereo not drawn),114% (inactive)
15,Clc1ccc(Cn2c(CN3CCCC3)nc3ccccc32)cc1,81.8% (inactive)
16,N#Cc1cc2nc(O)c(O)nc2cc1[N+](=O)[O-],94.9% (inactive)
17,NC1CCN(c2cccc(Cl)n2)CC1,91.5% (inactive)
18,CNC[C@H](O)c1cccc(O)c1,109% (inactive)
19,COc1ccc2c(c1)C13CCCCC1C(C2)N(C)CC3 (stereo not drawn),108% (inactive)
20,Nc1ccc2c3c(cccc13)C(=O)NC2=O,0% (inactive)
21,Cc1nnc(SCC2=C(C(=O)O)N3C(=O)[C@@H](NC(=O)Cn4cnnn4)[C@H]3SC2)s1,90.8% (inactive)
22,C[N+](C)(C)CCO,96.9% (inactive)
23,CC[N+](C)(C)Cc1ccccc1Br,116% (inactive)
24,Clc1ccc(C(c2ccccc2Cl)C(Cl)Cl)cc1 (stereo not drawn),92.7% (inactive)
25,CC(C)NCC(O)COc1cccc2[nH]ccc12 (stereo not drawn),90.8% (inactive)
26,O=C(O)C1=CCCN(CCON=C(c2ccccc2)c2ccccc2)C1,104% (inactive)
27,CCCCCCCCCCCCCCCCCC(=O)NCC(COP(=O)([O-])OCC[N+](C)(C)C)OCC (stereo not drawn),101% (inactive)

row,Compound,vessel count % control
1,Oc1ccc(C2CNCc3sccc32)cc1O (stereo not drawn),94.7% (inactive)
2,O=C1N(c2ccccc2)c2ccccc2C1(Cc1ccncc1)Cc1ccncc1,96.6% (inactive)
3,COc1cccc2c1[C@@H]1CN(CCCCn3c(=O)[nH]c4c(sc5ncc(-c6ccccc6)nc54)c3=O)C[C@@H]1CO2,87.9% (inactive)
4,NCCCP(=O)(O)O,91.6% (inactive)
5,C(=C\c1ccccc1)/CN1CCN(C(c2ccccc2)c2ccccc2)CC1,88.9% (inactive)
6,NCC(O)c1cc(O)c(O)cc1F (stereo not drawn),87.4% (inactive)
7,CSC(N)=NCCC[C@H](N)C(=O)O,107% (inactive)
8,C[C@]12C[C@H](O)[C@H]3[C@@H](CCC4=CC(=O)CC[C@@]43C)[C@@H]1CC[C@@H]2C(=O)CO,103% (inactive)
9,CCC(=O)N1CCN(C(=O)c2ccccc2)CC1,134% (inactive)
10,O=C(O)C1=CC(=C(c2ccc(O)c(C(=O)O)c2)c2ccc(O)c(C(=O)O)c2)C=CC1=O,109% (inactive)
11,CN1CCc2cc(Cl)c(O)cc2[C@@H](c2ccccc2)C1,97.5% (inactive)
12,CC(=O)NCCc1ccc(O)c(O)c1,105% (inactive)
13,CC(=O)[C@H]1CC[C@H]2[C@@H]3CC[C@H]4C[C@H](O)CC[C@]4(C)[C@H]3C(=O)C[C@]12C,111% (inactive)
14,O=C(O)C1C2CCC(O2)C1C(=O)O (stereo not drawn),98.3% (inactive)
15,Nc1nc2c(ncn2COC(CO)CO)c(=O)[nH]1,84.5% (inactive)
16,C[C@@H](NC(=O)/C(C#N)=C/c1ccc(O)c(O)c1)c1ccccc1,128% (inactive)
17,C/C(=C\c1ccc(C(=O)O)cc1)c1ccc2c(c1)C(C)(C)CCC2(C)C,70% (inactive)
18,CC(C)NCC(O)c1ccc(O)c(O)c1 (stereo not drawn),97.1% (inactive)
19,NCCSSCCN,118% (inactive)
20,CC[C@@H]1Cc2cc(O)ccc2C2=C1c1ccc(O)cc1C[C@H]2CC,99.8% (inactive)
21,Cc1cc(O)c2c(c1)C(=O)c1cc(O)cc(O)c1C2=O,87.5% (inactive)
22,CCNC(=O)N1CCN(CCCC(c2ccc(F)cc2)c2ccc(F)cc2)CC1,83.9% (inactive)
23,Cc1cn([C@H]2C=C[C@@H](CO)O2)c(=O)[nH]c1=O,99.1% (inactive)
24,O=c1[nH]c2ccccc2c2ccccc12,103% (inactive)
25,O=C(CCc1ccc(O)cc1)c1c(O)cc(O)cc1O,124% (inactive)
26,NC(=NCCC[C@H](N)C(=O)O)NO,99% (inactive)
